{"source": "patent US20080175892A1", "about": "“Nanostructure-Drug Conjugates” (priority 2006, published 2008)", "assay": "Aggregation in aqueous solution by particle-size analyzer (light scattering)", "type": "physicochemical", "settings": "aqueous solution (10% DMSO), 4 and 0.04 μg/mL solutions", "description": "Thus, the aggregation properties of 6 and paclitaxel were studied as a function of concentration in aqueous solution (10% DMSO) using a Brookhaven 90Plus submicrometer particle-size analyzer."}
{"smiles": "CC(=O)O[C@H]1C(=O)[C@@]2(C)[C@H]([C@H](OC(=O)c3ccccc3)[C@]3(O)C[C@H](OC(=O)[C@H](O)[C@@H](NC(=O)c4ccccc4)c4ccccc4)C(C)=C1C3(C)C)[C@]1(OC(C)=O)CO[C@@H]1C[C@@H]2O", "note": "[paclitaxel, Paclitaxel]", "values": [{"measurement": "light scattering (aggregation)", "result": "did not show any scattering"}]}
